Measurements: PMC9937538 (Journal of Medicinal Chemistry, 2022)
≈ marks a conversion by molar mass, not a printed value. Where “and” joins values, the source holds several entries; their conditions need not be identical. Equal entries are not always repeated.

What was measured:
[1] = target: T1, purified recombinant human DPP IV (Homo sapiens, UniProt P27487); assay: In vitro DPP IV activity assay (fluorogenic Gly-Pro-AMC substrate); assay type: biochemical; details: mean from three different assays
T1 construct: purchased Cayman Chemicals (Michigan)
T1 sequence (P27487 whole entry): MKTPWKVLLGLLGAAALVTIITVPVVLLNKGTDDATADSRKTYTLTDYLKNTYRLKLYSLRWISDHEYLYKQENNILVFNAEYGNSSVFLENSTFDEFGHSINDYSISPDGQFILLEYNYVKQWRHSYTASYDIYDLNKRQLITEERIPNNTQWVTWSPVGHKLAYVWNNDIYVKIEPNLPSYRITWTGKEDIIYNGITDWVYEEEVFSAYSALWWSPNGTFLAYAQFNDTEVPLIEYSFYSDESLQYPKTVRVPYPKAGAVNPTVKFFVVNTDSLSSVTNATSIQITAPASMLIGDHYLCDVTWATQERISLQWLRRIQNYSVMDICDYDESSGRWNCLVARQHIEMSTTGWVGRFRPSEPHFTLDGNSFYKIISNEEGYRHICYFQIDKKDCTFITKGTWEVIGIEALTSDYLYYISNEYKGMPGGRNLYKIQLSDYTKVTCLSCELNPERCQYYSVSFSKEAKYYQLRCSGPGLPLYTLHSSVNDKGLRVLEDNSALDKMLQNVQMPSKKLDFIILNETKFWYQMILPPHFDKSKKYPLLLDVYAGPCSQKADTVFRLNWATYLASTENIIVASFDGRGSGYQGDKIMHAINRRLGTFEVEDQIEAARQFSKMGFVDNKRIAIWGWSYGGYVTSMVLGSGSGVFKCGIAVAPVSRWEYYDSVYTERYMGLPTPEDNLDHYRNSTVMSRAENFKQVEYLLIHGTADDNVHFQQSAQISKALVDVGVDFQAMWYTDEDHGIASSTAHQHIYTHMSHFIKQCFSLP
Description: The DPP IV inhibition activities of the entire sets of compounds were carried out on purified recombinant human DPP IV using conditions previously optimized.[35]
Four independent in vitro experiments were carried out, and each of those was performed in triplicate in a white half-volume 96-well solid plate. […] Afterward, the samples were mixed and 50 μL was transferred to each plate well. Each reaction was started by adding 50 μL of the substrate solution (200 μM H-Gly-Pro-7-amido-4-methylcoumarin (AMC)) to each well and incubated at 37 °C for 30 min. […] The DPP IV enzyme and the substrate solution were provided by Cayman Chemicals (Michigan).

[2] = target: T2, human cloned α1a-AR (Homo sapiens, UniProt P35348); assay: α1a-AR binding assay ([3H]prazosin displacement); details: human cloned α1a-AR expressed in HEK293 cells
T2 construct: expressed in transfected cells
T2 sequence (P35348 1-466): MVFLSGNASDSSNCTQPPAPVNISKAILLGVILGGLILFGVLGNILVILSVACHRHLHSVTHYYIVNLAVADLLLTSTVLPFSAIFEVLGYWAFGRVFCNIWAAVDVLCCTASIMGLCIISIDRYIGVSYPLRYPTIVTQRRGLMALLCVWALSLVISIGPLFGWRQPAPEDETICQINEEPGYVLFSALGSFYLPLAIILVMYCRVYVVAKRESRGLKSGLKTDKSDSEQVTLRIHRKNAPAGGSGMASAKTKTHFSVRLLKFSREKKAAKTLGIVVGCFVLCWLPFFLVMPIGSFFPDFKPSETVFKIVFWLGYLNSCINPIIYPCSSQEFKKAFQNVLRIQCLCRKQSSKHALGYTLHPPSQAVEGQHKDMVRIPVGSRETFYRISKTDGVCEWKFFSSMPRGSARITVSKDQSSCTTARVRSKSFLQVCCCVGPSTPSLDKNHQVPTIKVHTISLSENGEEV
From the text: Since WB-4101 is a potent α1 antagonist, this adrenoreceptor subtype was chosen to assess the loss of adrenergic affinity.
Figure S3. […] Curves […]
from single experiments were fitted using the standard four parameter logistic equation and represent the mean ± S.E.M. of 4 observations, 2 experi-ments. X-axis: Log concentrations of competitive test compounds. Y-axis: normalized [3H]prazosin Bound/Total bound.
In the table are reported the affinity constants, expressed as pKi (-log Ki), of compounds 11, 12 and WB-4101 for human cloned α1a-AR expressed in HEK293 cells. The values represent the arithmetic mean ± S.E.M. of 4 observations, 2 experiments.
ND, not determinable; NA, not available.
Note: data generated from binding assays were analyzed using Prism 5.02 (GraphPad Software Inc., San Diego, CA) and were fitted to a parametric function to derive best estimates of the IC50 and slope factor (nH); IC50 values were then converted to binding constant Ki according to Cheng-Prus- […]
The details on the α1a-AR binding assay have been described before2.
(1 picture or pasted object on this page, not shown here)

[3] = target: T3, DPP IV activity expressed by nondifferentiated Caco-2 cells (Homo sapiens, UniProt P27487); assay type: cell-based
T3 construct: Caco-2 cells that express high levels of DPP IV on their cellular membranes; endogenous in cells; host or cells: Caco-2 cells (INSERM, Paris)
T3 sequence (P27487 whole entry): as the sequence (P27487 whole entry) above
Description: The data are represented as the means ± standard deviation (SD) of three independent experiments, performed in triplicate. Statistical analysis was performed by one-way analysis of variance (ANOVA), followed by Tukey’s post hoc test. ns: not significant; (**), p < 0.01, (****) p < 0.0001; C: control cells.
A total of 3 × 10^4 Caco-2 cells/well were seeded in black 96-well plates with clear bottoms.

[4] = Solubility in phosphate-buffered saline (LC-MS/MS); assay type: physicochemical; details: pH 7.4, read-out: soluble concentration
Description: The solubility of compound 12 was determined in phosphate-buffered saline at a pH of 7.4 through a suitable liquid chromatography and tandem mass spectrometry (LC-MS/MS) method, as described in the Experimental Section.

[5] = Hepatic microsome stability; assay type: in vitro ADME; details: after 120 min of incubation
Description: To predict the metabolic fate as well as the susceptibility of compound 12 to phase I metabolism following the in vivo administration, it was incubated with human (Sekisui XenoTech, LLC), CD-1 mouse (BioIVT), and Sprague-Dawley (SD) rat liver microsomes (Corning), as described in the Experimental Section.

[6] = test system: Caco-2 cells; assay: Uptake by Caco-2 cells (intrinsic fluorescence, normalized with Janus Green); assay type: in vitro ADME, human; details: 1.0 μM
Description: The ability of compound 12 to be uptaken by Caco-2 cells was assessed, exploiting its natural behavior to emit fluorescence at 313 nm after excitation at 250 nm using a fluorescent plate reader. […] Fluorescence signals emitted at 313 nm by the compound localized at the intracellular level as a function of time have been normalized for the total amount of cells stained using Janus Green (OD 595 nm); therefore, the relative fluorescence unit (RFU) 313/595 nm after 15, 30, and 60 min of incubation was calculated. The RFU 313/595 nm of the blank samples, which represents the cellular background, was subtracted from each normalized fluorescence signal. […] In particular, compound 12 is absorbed by Caco-2 cells up to 2874 ± 383.1, 4562 ± 993.2, and 6250 ± 1163RFU after 15, 30, and 60 min, respectively (Figure 7).

[7] = test system: Caco-2 cells; assay: MTT assay; assay type: cell-based, human; details: 10^–8 to 10^–5 M, 48 h
Description: (§1) The cytotoxicity of the active compound 12 was determined. Cell viability was assessed by the quantitative colorimetric method of the MTT reduction on Caco-2 and HepG2 cells.
(§2) A total of 3 × 10^4 Caco-2 and HepG2 cells/well were seeded in 96-well plates and treated with 11 and 12 from 10^–8 to 10^–5 M or vehicle (H2O) in complete growth media for 48 h at 37 °C under a 5% CO2 atmosphere. Subsequently, the treatment solvent was aspirated and 100 μL/well of 3-(4,5-dimethylthiazol-2-yl)-2,5-diphenyltetrazolium bromide (MTT) filtered solution was added. After 2 h of incubation at 37 °C under a 5% CO2 atmosphere, 0.5 mg/mL solution was aspirated and 100 μL/well of the lysis buffer (8 mM HCl + 0.5% NP-40 in DMSO) was added. After 10 min of slow shaking, the absorbance at 575 nm was read on a Synergy H1 fluorescence plate reader (Biotek, Bad Friedrichshall, Germany).

[8] = test system: HepG2 cells; assay: MTT assay; assay type: cell-based, human; details: 10^–8 to 10^–5 M, 48 h
Description: as §1, §2

[9] = target: hCA IX (Homo sapiens, UniProt Q16790); assay: CA inhibition, stopped-flow CO2 hydration assay; details: read-out: Ki CA IX; stopped-flow technique, mean from three assays
Description: An applied photophysics stopped-flow instrument was used for assaying the CA-catalyzed CO2 hydration activity.[37]
The uncatalyzed rates were determined in the same manner and subtracted from the total observed rates. Stock solutions of the inhibitor (0.1 mM) were prepared in distilled–deionized water, and dilutions up to 0.01 nM were done thereafter with the assay buffer. Inhibitor and enzyme solutions were preincubated together for 15 min at room temperature prior to the assay to allow for the formation of the E–I complex. The inhibition constants were obtained by nonlinear least-squares methods using PRISM 3 and the Cheng–Prusoff equation, as reported earlier, and represent the mean from at least three different determinations. All CA isoforms were recombinant proteins obtained in-house, as reported earlier.[44]−[46]

With `NC(CCOc1ccc(S(N)(=O)=O)cc1)C1COc2ccccc2O1` (centres unmarked) [Compound 12, 4-(3-Amino-3-(1,4-benzodioxan)propoxy)benzenesulfonamide] the IC50 [1] was 0.049 ± 0.0045 µM, the “nH α1a-AR (slope factor)” value [2] was 0.97 ± 0.27 and the “pKi α1a-AR” value ([2]; mean ± S.E.M.) was 6.61. The “inhibition of cellular DPP IV activity vs untreated cells” value [3] was 60.65 ± 4.92% and 71.86 ± 4.27%, the solubility [4] was 224 µM (≈ 81.6 µg/mL) and the compound remaining ([5]; human liver microsomes) was 72.6%. For the same compound, the compound remaining ([5]; mouse liver microsomes) was 27.5%, the compound remaining ([5]; rat liver microsomes) was 16.7% and the “intracellular fluorescence RFU 313/595 nm (uptake)” value ([6]; 15 min) was 2874 ± 383.1 RFU. The “intracellular fluorescence RFU 313/595 nm (uptake)” value ([6]; 30 min) was 4562 ± 993.2 RFU, the “intracellular fluorescence RFU 313/595 nm (uptake)” value ([6]; 60 min) was 6250 ± 1163 RFU and the “cell viability (MTT reduction)” value [7] was “maintain their metabolic activity”. The “cell viability (MTT reduction)” value [8] was “maintain their metabolic activity” and the Ki [9] was 0.133 µM.
